Data: PubChem BioAssay AID743116 (Broad Institute, 2013)
Active and inactive are the calls of the source.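 Rule for the calls: active = compounds whose dose curve reaches a melting temperature rise of about 0.39 degC within the tested concentrations; inconclusive = flat curve with moderate shift, or unreliable curve fit; inactive = the rest.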

biological target: Fibroblast growth factor 22 (Homo sapiens) (UniProt Q9HCT0); experiment: FGF22 binders by thermal shift, dose response, biophysical, SYPRO orange melt, qPCR instrument, dry powder (AID 743116); settings: Recombinant FGF22 thermal shift, SYPRO orange fluorescence
Sequence (Q9HCT0 whole entry, looked up): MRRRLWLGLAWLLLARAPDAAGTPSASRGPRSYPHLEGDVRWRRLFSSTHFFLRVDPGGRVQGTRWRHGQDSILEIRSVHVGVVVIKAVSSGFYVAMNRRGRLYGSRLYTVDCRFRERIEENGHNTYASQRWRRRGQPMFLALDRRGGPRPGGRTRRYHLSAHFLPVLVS

Row | SMILES | AC50
1 | COc1cc(/C=N/NC(=O)c2cc3ccccc3[nH]2)ccc1O | 10.1 µM
2 | O=C(Nc1ccc(S(=O)(=O)N2CCCC2)cc1)c1ccccc1 | 36.6 µM
3 | Cc1cc(NC(=O)Nc2ccc3c(ccn3C)c2)sn1 | 24.7 µM
4 | CSc1ccc(/C=N/NC(=O)c2ccc3nc[nH]c3c2)cc1 | 9.97 µM
5 | CCc1cc(-c2[nH]ncc2-c2ccc3c(c2)OCCO3)c(O)cc1O | 24 µM
6 | O=C(N/N=C/c1c[nH]c2ccccc12)c1cccc(O)c1 | 0.318 µM
7 | COC(=O)C[C@H]1CC[C@@H]2[C@@H](COc3ccc(NC(=O)Nc4ccc(C#N)cc4)cc3C(=O)N2C)O1 | > 38 µM (inactive)
8 | Nc1cccc(-c2nc3ccc(C(=O)c4ccccc4)cc3[nH]2)c1 | 29.5 µM
9 | O=C(N/N=C/c1c[nH]c2ccccc12)c1cccc(Cl)c1 | 15.5 µM
10 | Nc1ccc(C(=O)N/N=C/c2c[nH]c3ccccc23)cc1 | 24.3 µM
11 | O=C(N/N=C/c1c[nH]c2ccccc12)c1cccs1 | 5.49 µM

same assay, conditions: Recombinant FGF22 thermal shift, SYPRO orange fluorescence; at 19.5 µM (top of the series)

Row | SMILES | melting temperature shift, positive = stabilization
12 | CC(=O)Nc1ccc(NC(=O)Nc2ccccc2)cc1 | inactive
13 | Cc1[nH]c2ccccc2c1C(=O)NS(=O)(=O)Nc1ccc(Cl)cc1 | inactive
14 | CC(C)c1c(C(=O)N/N=C/c2c[nH]c3ccccc23)nnn1-c1nonc1N | inactive

same assay, conditions: Recombinant FGF22 thermal shift, SYPRO orange fluorescence; at 38 µM (top of the series)

Row | SMILES | melting temperature shift, positive = stabilization
15 | CCN1C(=O)C(CC(=O)Nc2ccc(F)cc2)N(Cc2ccc3c(c2)OCO3)C1=S (stereo not given) | inactive
16 | O=C(NCCc1c[nH]c2ccccc12)c1ccc(Cl)cc1 | inactive
17 | O=C(O)Cc1ccc(NC(=O)c2ccc(Cl)c(Cl)c2)cc1 | inactive
18 | CCNC(=O)C[C@@H]1CC[C@H]2[C@H](COc3ccc(NC(=O)Nc4ccc(Cl)cc4)cc3C(=O)N2C)O1 | inactive
19 | CCCNC(=O)COC(=O)c1ccccc1C(=O)N(C)C1CCCCC1 | inactive
20 | O=C(C[C@H]1CC[C@@H]2[C@H](COC[C@H](O)CN2S(=O)(=O)c2cccc(Cl)c2)O1)Nc1ccccc1 | inactive
21 | O=C(N/N=C/c1c[nH]c2ccccc12)c1ccc(O)c(O)c1 | inactive
22 | Cc1ccc(S(=O)(=O)N2C[C@H](O)COC[C@H]3O[C@H](CC(=O)NCc4ccc(Cl)c(Cl)c4)CC[C@@H]32)cc1 | inactive
23 | Cc1ccc(S(=O)(=O)N2C[C@@H](O)COC[C@@H]3O[C@@H](CC(=O)NCc4ccc(Cl)c(Cl)c4)CC[C@H]32)cc1 | inactive
24 | O=S(=O)(Nc1nnc(C(F)(F)F)s1)c1ccc(Cl)cc1 | inactive
25 | COC(=O)C[C@H]1CC[C@@H]2[C@@H](COc3ccc(NC(=O)Nc4cccc(C#N)c4)cc3C(=O)N2C)O1 | inactive
26 | CCOc1cccc(C(=O)Nc2ccc3[nH]ncc3c2)c1 | inactive
27 | CC(=O)Nc1cccc(C(=O)N/N=C/c2c[nH]c3ccccc23)c1 | inactive
28 | COC(=O)C1=C(CS(=O)(=O)c2cc(OC)ccc2OC)NC(=O)NC1c1ccc(O)c(OC)c1 (stereo not given) | inactive
29 | O=C(Nc1ccc(Cl)cc1)N[C@@H]1CC[C@@H](CCNS(=O)(=O)c2ccccc2F)O[C@H]1CO | inactive
30 | O=C(Nc1cc(Cl)cc(Cl)c1)N[C@@H]1CC[C@@H](CCNS(=O)(=O)c2cccc(F)c2)O[C@@H]1CO | inactive
31 | O=C(Nc1ccc(S(=O)(=O)N2CCOCC2)cc1)c1ccc(F)cc1 | inactive
32 | Clc1ccc(Nc2ccc(NCc3ccccc3)nn2)cc1 | inactive

Row | SMILES | melting temperature shift, positive = stabilization
33 | COc1ccc(Nc2nc3ccc(OC)cc3s2)cc1 | inactive
34 | O=C(Nc1nccs1)C1CC(=O)N(c2ccc(F)cc2)C1 (stereo not given) | inactive
35 | Cc1cc(C(=O)N/N=C/c2c[nH]c3ccccc23)cs1 | inactive
36 | CCN1C/C(=C/c2cccs2)c2nc3ccccc3c(C(=O)O)c2C1 | inactive
37 | O=C(Nc1ccc(S(=O)(=O)N2CCCC2)cc1)c1cccs1 | inactive
38 | O=C(N/N=C/c1cccc(Oc2ccccc2)c1)c1cccc(O)c1 | inactive
39 | CN(Cc1c(C(=O)N/N=C/c2ccc(O)cc2)nnn1-c1nonc1N)c1ccccc1 | inactive
40 | O=S1(=O)N=C(N(Cc2cccs2)c2ccc(O)cc2)c2ccccc21 | inactive
41 | CC(=O)Nc1cccc(NC(=O)c2ccc3[nH]c(C)c(C)c3c2)c1 | inactive
42 | CCc1cc(-c2n[nH]c(C)c2-c2ccc3c(c2)OCCO3)c(O)cc1O | inactive
43 | COc1ccc(C)cc1NS(=O)(=O)c1ccc(NS(=O)(=O)c2ccc(NC(C)=O)cc2)cc1 | inactive
44 | Cc1ccc(OCCCC(=O)Nc2ccc(S(=O)(=O)N3CCOCC3)cc2)cc1 | inactive
45 | Cc1ccn(-c2ccc(NC(=O)c3cccs3)cc2)n1 | inactive
46 | COc1ccc(-c2nc(-c3ccc(O)cc3O)cs2)cc1OC | inactive
47 | O=C(N/N=C/c1ccc(C(F)(F)F)cc1)c1ccc(O)cc1 | inactive
48 | CC(=O)c1ccc(NC(=O)Nc2cccnc2)cc1 | inactive
49 | O=C(Nc1cc(Cl)cc(Cl)c1)N[C@@H]1CC[C@@H](CCNS(=O)(=O)c2cccc(F)c2)O[C@H]1CO | inactive
50 | Cc1[nH]c2ccc(C(=O)OCC(=O)Nc3cccc(S(N)(=O)=O)c3)cc2c1C | inactive
